Measurements from patent EP3375430A1, “FRAGRANCE COMPOSITIONS” (Takasago International Corporation, priority 2017, dated 2018).

Columns and labels:
[1] = Amount of fragrance ingredients retained on paper blotter after evaporation (ethanol extraction, GC-MS); assay type: physicochemical
Method in brief: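 100 µL of fragrance formulation applied to paper blotters kept at 32°C open to air; at each time three blotters extracted 1 h in ethanol with methyl decanoate internal standard and analysed by GC-MS (HP-5MS, 50–280°C). Amounts averaged over triplicates and expressed as percent of time-zero level.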

[2] = Headspace concentration of fragrance ingredients over blotter (thermal desorption GC-MS); assay type: physicochemical; details: fragrance TAK
Procedure: The headspace concentration of individual ingredients of fragrance TAK, as formulated in either a conventional EdT (EdT1) or a fragrance composition of the invention (C1), was assessed by the method described below.
A 10 cm length was cut from a standard perfumers' blotter. A sample of 100µL volume was applied to the upper surface of the blotter with a syringe. The blotter was placed on a hot plate thermostatted at 32°C and left to equilibrate for 5 minutes. Two desorption tubes (6cm length 4mm internal diameter) each containing 2 cm length of Tenax TA adsorbent were fitted to the glass part of a headspace apparatus shown in figure 9. The glass part was fitted over the blotter, a metering pump was connected to one of the desorption tubes and air was drawn through the apparatus flushing the headspace over the blotter at a rate of 17mL/min. Sampling continued for about 16.5 minutes until 280mL of air had been extracted. Then the outlet desorption tube was analysed by gas chromatography as described below. The glass part was removed from the blotter which was left on the hotplate until the next sampling time when two fresh desorption tubes were fitted and the extraction procedure repeated for a further 280mL of extracted headspace.
• Initial Temp: 50°C • Initial Time: 5 min • Rate: 3°C /min • Final Temp: 250°C • Final Time: 20 min • Run Time: 91.67 min
• Column: HP-5MS 30m * 0.25mm * 0.25µm • Gas: Helium • Constant pressure 12.675 psi
• Initial Temp: -30°C • Equilibration Time: 0.05 min • Initial Time: 0.00 min • Rate 12°C / min • End Temp: 260°C • Hold Time: 10 min
Temperature program • Initial Temp: 35°C • Delay Time: 0.30 min • Initial Time: 0.00 min • Rate: 30°C / min • End Temp: 250°C • Hold Time: 5.00 min
TDU Settings • Transfer Temp: 250°C • Transfer Temp Mode: Fixed • Desorption Mode: splitless • Sample mode: Retain tube - standby cooling • Standby Temp: 50°C
Detector MS • MS 5973 • Mass range: 35 to 350 • Threshold: 150 • Mass Quad: 150°C • Mass Source: 230°C
Following the procedure of example 2, the headspace concentration of representative ingredients of fragrance COM1 was determined. COM1 was dosed at 5 and 20 % either in control EdT3 and EdT4 or in compositions of the invention C7 and C8, as shown in table 10.
The headspace concentration of individual ingredients of fragrance TAK (see Table 1), as formulated in either a conventional EdT (EdT1) or fragrance compositions of the invention (C14, C15), was assessed by the method described in example 2.

[3] = Table 3, fragrance TAK in C1, 15 min, 32°C
[4] = Table 3, fragrance TAK in C1, 60 min, 32°C
[5] = Table 3, fragrance TAK in C1, 120 min, 32°C
[6] = Table 3, fragrance TAK in C1, 240 min, 32°C
[7] = Table 3, fragrance TAK in C1, 480 min, 32°C
[8] = Table 3, fragrance TAK in EdT1, 15 min, 32°C
[9] = Table 3, fragrance TAK in EdT1, 60 min, 32°C
[10] = Table 3, fragrance TAK in EdT1, 120 min, 32°C
[11] = Table 3, fragrance TAK in EdT1, 240 min, 32°C
[12] = Table 3, fragrance TAK in EdT1, 480 min, 32°C
[13] = Table 3, fragrance TAK in EdT1 or C1, T0, set at 100% (normalisation)
[14] = Table 4, fragrance TAK in C2, 15 min, 32°C
[15] = Table 4, fragrance TAK in C2, 480 min, 32°C
[16] = Table 4, fragrance TAK in EdT1, 15 min, 32°C
[17] = Table 4, fragrance TAK in EdT1, 480 min, 32°C
[18] = Table 4, fragrance TAK in EdT1 or C2, T0, set at 100% (normalisation)
[19] = Table 5, fragrance TAK in C3, 15 min, 32°C
[20] = Table 5, fragrance TAK in C3, 60 min, 32°C
[21] = Table 5, fragrance TAK in C3, 120 min, 32°C
[22] = Table 5, fragrance TAK in C3, 240 min, 32°C
[23] = Table 5, fragrance TAK in C3, 480 min, 32°C
[24] = Table 5, fragrance TAK in C3, 1440 min, 32°C
[25] = Table 5, fragrance TAK in EdT1, 15 min, 32°C
[26] = Table 5, fragrance TAK in EdT1, 60 min, 32°C
[27] = Table 5, fragrance TAK in EdT1, 120 min, 32°C
[28] = Table 5, fragrance TAK in EdT1, 240 min, 32°C
[29] = Table 5, fragrance TAK in EdT1, 480 min, 32°C
[30] = Table 5, fragrance TAK in EdT1, 1440 min, 32°C
[31] = Table 5, fragrance TAK in EdT1 or C3, T0, set at 100% (normalisation)
[32] = Table 6, fragrance TAK in C4, 15 min, 32°C
[33] = Table 6, fragrance TAK in C4, 60 min, 32°C
[34] = Table 6, fragrance TAK in C4, 120 min, 32°C
[35] = Table 6, fragrance TAK in C4, 240 min, 32°C
[36] = Table 6, fragrance TAK in C4, 480 min, 32°C
[37] = Table 6, fragrance TAK in EdT1, 15 min, 32°C
[38] = Table 6, fragrance TAK in EdT1, 60 min, 32°C
[39] = Table 6, fragrance TAK in EdT1, 120 min, 32°C
[40] = Table 6, fragrance TAK in EdT1, 240 min, 32°C
[41] = Table 6, fragrance TAK in EdT1, 480 min, 32°C
[42] = Table 6, fragrance TAK in EdT1 or C4, T0, set at 100% (normalisation)

## CCCCCCOC(C)=O [Hexyl acetate, Hexyl Acetate]
[1]; [3]
  amount of fragrance ingredient retained on blotter (percentage of the initial amount): 41%
[1]; [4]
  amount of fragrance ingredient retained on blotter (percentage of the initial amount): 5%
[1]; [5]
  amount of fragrance ingredient retained on blotter (percentage of the initial amount): 2%
[1]; [6]
  amount of fragrance ingredient retained on blotter (percentage of the initial amount): 2%
[1]; [7]
  amount of fragrance ingredient retained on blotter (percentage of the initial amount): 2%
[1]; [8]
  amount of fragrance ingredient retained on blotter (percentage of the initial amount): 13%
[1]; [9]
  amount of fragrance ingredient retained on blotter (percentage of the initial amount): 2%
[1]; [10]
  amount of fragrance ingredient retained on blotter (percentage of the initial amount): 2%
[1]; [11]
  amount of fragrance ingredient retained on blotter (percentage of the initial amount): 1%
[1]; [12]
  amount of fragrance ingredient retained on blotter (percentage of the initial amount): <1%
[1]; [13]
  amount of fragrance ingredient retained on blotter (percentage of the initial amount): 100%
[1]; [14]
  amount of fragrance ingredient retained on blotter (percentage of the initial amount): 54%
[1]; [15]
  amount of fragrance ingredient retained on blotter (percentage of the initial amount): <1%
[1]; [16]
  amount of fragrance ingredient retained on blotter (percentage of the initial amount): 15%
[1]; [17]
  amount of fragrance ingredient retained on blotter (percentage of the initial amount): 6%
[1]; [18]
  amount of fragrance ingredient retained on blotter (percentage of the initial amount): 100%
[1]; [19]
  amount of fragrance ingredient retained on blotter (percentage of the initial amount): 43%
[1]; [20]
  amount of fragrance ingredient retained on blotter (percentage of the initial amount): 5%
[1]; [21]
  amount of fragrance ingredient retained on blotter (percentage of the initial amount): 2%
[1]; [22]
  amount of fragrance ingredient retained on blotter (percentage of the initial amount): 2%
[1]; [23]
  amount of fragrance ingredient retained on blotter (percentage of the initial amount): 2%
[1]; [24]
  amount of fragrance ingredient retained on blotter (percentage of the initial amount): 2%
[1]; [25]
  amount of fragrance ingredient retained on blotter (percentage of the initial amount): 13%
[1]; [26]
  amount of fragrance ingredient retained on blotter (percentage of the initial amount): 2%
[1]; [27]
  amount of fragrance ingredient retained on blotter (percentage of the initial amount): 2%
[1]; [28]
  amount of fragrance ingredient retained on blotter (percentage of the initial amount): 1%
[1]; [29]
  amount of fragrance ingredient retained on blotter (percentage of the initial amount): <1%
[1]; [30]
  amount of fragrance ingredient retained on blotter (percentage of the initial amount): <1%
[1]; [31]
  amount of fragrance ingredient retained on blotter (percentage of the initial amount): 100%
[1]; [32]
  amount of fragrance ingredient retained on blotter (percentage of the initial amount): 41%
[1]; [33]
  amount of fragrance ingredient retained on blotter (percentage of the initial amount): 5%
[1]; [34]
  amount of fragrance ingredient retained on blotter (percentage of the initial amount): 5%
[1]; [35]
  amount of fragrance ingredient retained on blotter (percentage of the initial amount): 4%
[1]; [36]
  amount of fragrance ingredient retained on blotter (percentage of the initial amount): 3%
[1]; [37]
  amount of fragrance ingredient retained on blotter (percentage of the initial amount): 13%
[1]; [38]
  amount of fragrance ingredient retained on blotter (percentage of the initial amount): 2%
[1]; [39]
  amount of fragrance ingredient retained on blotter (percentage of the initial amount): 2%
[1]; [40]
  amount of fragrance ingredient retained on blotter (percentage of the initial amount): 1%
[1]; [41]
  amount of fragrance ingredient retained on blotter (percentage of the initial amount): <1%
[1]; [42]
  amount of fragrance ingredient retained on blotter (percentage of the initial amount): 100%
[2]; after 1 hour, both control EdT1 and composition C1, Figure 2
  headspace presence of ingredient: lost

## CC(C=O)Cc1ccc(C(C)(C)C)cc1 (stereo not shown) [Lilial™, 3-(4-tert-Butylphenyl)-2-methylpropanal]
[1]; [3]
  amount of fragrance ingredient retained on blotter (percentage of the initial amount): 78%
[1]; [4]
  amount of fragrance ingredient retained on blotter (percentage of the initial amount): 79%
[1]; [5]
  amount of fragrance ingredient retained on blotter (percentage of the initial amount): 75%
[1]; [6]
  amount of fragrance ingredient retained on blotter (percentage of the initial amount): 72%
[1]; [7]
  amount of fragrance ingredient retained on blotter (percentage of the initial amount): 51%
[1]; [8]
  amount of fragrance ingredient retained on blotter (percentage of the initial amount): 91%
[1]; [9]
  amount of fragrance ingredient retained on blotter (percentage of the initial amount): 84%
[1]; [10]
  amount of fragrance ingredient retained on blotter (percentage of the initial amount): 75%
[1]; [11]
  amount of fragrance ingredient retained on blotter (percentage of the initial amount): 65%
[1]; [12]
  amount of fragrance ingredient retained on blotter (percentage of the initial amount): 23%
[1]; [13]
  amount of fragrance ingredient retained on blotter (percentage of the initial amount): 100%
[1]; [14]
  amount of fragrance ingredient retained on blotter (percentage of the initial amount): 98%
[1]; [15]
  amount of fragrance ingredient retained on blotter (percentage of the initial amount): 49%
[1]; [16]
  amount of fragrance ingredient retained on blotter (percentage of the initial amount): 87%
[1]; [17]
  amount of fragrance ingredient retained on blotter (percentage of the initial amount): 18%
[1]; [18]
  amount of fragrance ingredient retained on blotter (percentage of the initial amount): 100%
[1]; [19]
  amount of fragrance ingredient retained on blotter (percentage of the initial amount): 88%
[1]; [20]
  amount of fragrance ingredient retained on blotter (percentage of the initial amount): 92%
[1]; [21]
  amount of fragrance ingredient retained on blotter (percentage of the initial amount): 90%
[1]; [22]
  amount of fragrance ingredient retained on blotter (percentage of the initial amount): 87%
[1]; [23]
  amount of fragrance ingredient retained on blotter (percentage of the initial amount): 60%
[1]; [24]
  amount of fragrance ingredient retained on blotter (percentage of the initial amount): 45%
[1]; [25]
  amount of fragrance ingredient retained on blotter (percentage of the initial amount): 91%
[1]; [26]
  amount of fragrance ingredient retained on blotter (percentage of the initial amount): 84%
[1]; [27]
  amount of fragrance ingredient retained on blotter (percentage of the initial amount): 75%
[1]; [28]
  amount of fragrance ingredient retained on blotter (percentage of the initial amount): 65%
[1]; [29]
  amount of fragrance ingredient retained on blotter (percentage of the initial amount): 23%
[1]; [30]
  amount of fragrance ingredient retained on blotter (percentage of the initial amount): 6%
[1]; [31]
  amount of fragrance ingredient retained on blotter (percentage of the initial amount): 100%
[1]; [32]
  amount of fragrance ingredient retained on blotter (percentage of the initial amount): 99%
[1]; [33]
  amount of fragrance ingredient retained on blotter (percentage of the initial amount): 92%
[1]; [34]
  amount of fragrance ingredient retained on blotter (percentage of the initial amount): 88%
[1]; [35]
  amount of fragrance ingredient retained on blotter (percentage of the initial amount): 87%
[1]; [36]
  amount of fragrance ingredient retained on blotter (percentage of the initial amount): 52%
[1]; [37]
  amount of fragrance ingredient retained on blotter (percentage of the initial amount): 91%
[1]; [38]
  amount of fragrance ingredient retained on blotter (percentage of the initial amount): 84%
[1]; [39]
  amount of fragrance ingredient retained on blotter (percentage of the initial amount): 75%
[1]; [40]
  amount of fragrance ingredient retained on blotter (percentage of the initial amount): 65%
[1]; [41]
  amount of fragrance ingredient retained on blotter (percentage of the initial amount): 23%
[1]; [42]
  amount of fragrance ingredient retained on blotter (percentage of the initial amount): 100%
[2]; T0 + 8h, Figure 4
  headspace concentration in composition C1 compared to control EdT1: significantly greater
